One series has as its target purified PARP protein (Homo sapiens, UniProt P09874). In words: PARP enzyme inhibition assay. The following applies: 20 nM purified PARP (5 nM for tight-binding inhibitors), 500 μM NAD+, 25° C., several values in one cell = repeat determinations. The series is classed as biochemical.
Where [1] appears, read: read-out: Inhibition Constant Ki.

The Ki is the dissociation constant of the complex between target and ligand, obtained from inhibition or displacement. As a reminder, the melting point is the temperature of the solid-liquid transition.

Molecules are shown by their SMILES. Several values for one entry are separate records, joined by “and”; a condition that tells them apart may be missing. Equal values may be shown once. Read-outs that look alike come from different tables or passages of the source.

Sequence of purified PARP protein (P09874 whole entry): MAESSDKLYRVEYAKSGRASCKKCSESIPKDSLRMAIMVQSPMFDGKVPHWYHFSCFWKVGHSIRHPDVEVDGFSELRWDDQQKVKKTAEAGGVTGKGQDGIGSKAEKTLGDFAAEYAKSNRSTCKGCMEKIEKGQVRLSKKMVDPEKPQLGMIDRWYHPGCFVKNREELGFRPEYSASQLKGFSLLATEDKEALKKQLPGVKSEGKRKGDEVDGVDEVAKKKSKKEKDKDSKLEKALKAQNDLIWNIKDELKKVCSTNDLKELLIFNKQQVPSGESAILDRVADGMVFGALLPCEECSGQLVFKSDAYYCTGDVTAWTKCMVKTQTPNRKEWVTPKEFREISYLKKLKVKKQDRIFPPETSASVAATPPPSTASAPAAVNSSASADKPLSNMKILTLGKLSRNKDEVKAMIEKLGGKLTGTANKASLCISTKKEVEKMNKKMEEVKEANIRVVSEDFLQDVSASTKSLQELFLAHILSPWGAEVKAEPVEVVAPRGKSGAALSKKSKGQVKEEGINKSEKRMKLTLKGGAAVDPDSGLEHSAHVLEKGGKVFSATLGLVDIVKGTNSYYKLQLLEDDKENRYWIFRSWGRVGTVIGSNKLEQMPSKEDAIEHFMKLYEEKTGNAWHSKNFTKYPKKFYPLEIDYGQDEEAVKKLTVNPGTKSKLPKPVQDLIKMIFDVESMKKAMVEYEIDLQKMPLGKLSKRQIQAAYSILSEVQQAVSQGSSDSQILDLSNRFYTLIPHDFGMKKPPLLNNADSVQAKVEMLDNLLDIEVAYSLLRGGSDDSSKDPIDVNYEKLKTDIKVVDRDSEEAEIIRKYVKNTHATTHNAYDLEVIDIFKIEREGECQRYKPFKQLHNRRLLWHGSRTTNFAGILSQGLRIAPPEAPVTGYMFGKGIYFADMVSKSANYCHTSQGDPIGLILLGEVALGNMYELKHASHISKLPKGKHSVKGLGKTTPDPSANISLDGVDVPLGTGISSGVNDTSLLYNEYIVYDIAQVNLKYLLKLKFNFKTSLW

In the case of `N#Cc1cccc(-c2nc3cccc4c3n2CCNC4=O)c1` [Example 73, 3-(6-Oxo-6,7,8,9-tetrahydro-2,7,9a-triaza-benzo[cd]azulen-1-yl)-benzonitrile], the melting point was 283 to 284 °C (dec.). Besides, the inhibitory constant (Ki) on purified PARP protein (setting [1]) was found to be 10 nM.
Regarding `CCOC(=O)c1nc2cccc3c2n1CCNC3=O` [Example 74, 6-Oxo-6,7,8,9-tetrahydro-2,7,9a-triaza-benzo[cd]azulen-1-carboxylic Acid Ethyl Ester], the melting point is 237 to 239 °C (dec.). Also, on purified PARP protein (setting [1]), the Ki was 33 nM.
In the case of `O=C1NCCn2c(-c3ccc(Oc4ccccc4)cc3)nc3cccc1c32` [Example 78, 1-(4-Phenoxyphenyl)-8,9-dihydro-7H-2,7,9a-triaza-benzo[cd]azulen-6-one], the melting point was 259 to 264 °C. For the same molecule, the Ki on purified PARP protein (setting [1]) worked out at 5.2 nM.
The corresponding values for `CCOC(OCC)c1ccc(-c2nc3cc(F)cc4c3n2CCNC4=O)cc1` [Example 79, 1-(4-Diethoxymethyl-phenyl)-4-fluoro-8,9-dihydro-7H-2,7,9a-triaza-benzo[cd]azulen-6-one] are 219 to 221 °C and 11 nM.
For `O=C1NCCn2c(-c3ncc[nH]3)nc3cccc1c32` [Example 80, 1-(1H-Imidazol-2-yl)-8,9-dihydro-7H-2.7,9a-triaza-benzo[cd]azulen-6-one], in that order: 227 to 228 °C (dec.) and 9 nM.
In the case of `O=C1NCCn2c(-c3ccc(CN4CCCC4)cc3)cc3cccc1c32` [Example 84, 6-(4-Pyrrolidin-1-ylmethyl-phenyl)-3,4-dihydro-2H-[1,4]diazepino[6,7,1-hi]indol-1-one], the melting point fell in the range of 146 to 148 °C. Further, the Ki on purified PARP protein (setting [1]) was 6.5 nM and 7.1 nM.
The molecule `O=Cc1cccc(-c2cc3cccc4c3n2CCNC4=O)c1` [Example 85, 3-(1-Oxo-1,2,3,4-tetrahydro-[1,4]diazepino[6,7,1-hi]indol-6-yl)-benzaldehyde] registered a melting point of 192 to 194 °C. Further, on purified PARP protein (setting [1]), the inhibitory constant (Ki) is 12 nM and 13 nM.
On to `CNCc1cccc(-c2cc3cccc4c3n2CCNC4=O)c1` [Example 87, 6-(3-Methylaminomethyl-phenyl)-3,4-dihydro-2H-[1,4]diazepino[6,7,1-hi]indol-1-one], for which the melting point was 128 to 130 °C. Besides, on purified PARP protein (setting [1]), the Ki is 6.7 nM and 7 nM.
As for `O=C1NCCn2c(-c3cccc(CN4CCCC4)c3)cc3cccc1c32` [Example 88, 6-(3-Pyrrolidin-1-ylmethyl-phenyl)-3,4-dihydro-2H-[1,4]diazepino[6,7,1-hi]indol-1-one], the melting point lay within 158 to 160 °C. In addition, the Ki at purified PARP protein (setting [1]) was 12 nM and 13 nM.
`N#Cc1c(-c2ccc(F)cc2)n2c3c(cccc13)C(=O)NCC2` [Example 91, 6-(4-Fluoro-phenyl)-1-oxo-1,2,3,4-tetrahydro-[1,4]diazepino[6,7,1-hi]indole-7-carbonitrile] displayed a melting point of 248 to 250 °C. In addition, the Ki at purified PARP protein (setting [1]) was 54 nM.
In turn, `NC(=O)c1c(-c2ccc(F)cc2)n2c3c(cccc13)C(=O)NCC2` [Example 92, 6-(4-Fluoro-phenyl)-1-oxo-1,2,3,4-tetrahydro-[1,4]diazepino[6,7,1-hi]indole-7-carboxylic Acid Amide] came in with a melting point of 287 to 289 °C. Besides, the Ki on purified PARP protein (setting [1]) was 200 nM.
In turn, `CC(=O)c1c(-c2ccc(F)cc2)n2c3c(cccc13)C(=O)NCC2` [Example 93, 7-Acetyl-6-(4-fluoro-phenyl)-3,4-dihydro-2H-[1,4]diazepino[6,7,1-hi]indol-1-one] returned a melting point of 275 to 276 °C. Besides, the inhibition constant (Ki) on purified PARP protein (Inhibition Constant Ki (nM)) was 306 nM.
In turn, `O=C1NCCn2c(-c3nccs3)nc3cccc1c32` [Example 94, 1-(Thiazol-2-yl)-8,9-dihydro-7H-2,7,9a-triaza-benzo[cd]azulen-6-one] came in with a melting point of 271 to 276 °C. Further, the Ki at purified PARP protein (setting [1]) stood at 4.3 nM.
`O=C1NCCn2c(-c3ccc[nH]3)nc3cccc1c32` [Example 95, 1-(1H-Pyrrol-2-yl)-8,9-dihydro-7H-2,7,9a-triaza-benzo[cd]azulen-6-one]: the melting point was 327 to 332 °C (dec.). Also, the Ki at purified PARP protein (setting [1]) is 6.2 nM.
Regarding `O=C1NCCn2c(-c3ccc(CO)cc3)nc3cc(F)cc1c32` [Example 97, 4-Fluoro-1-(hydroxymethyl-phenyl)-8,9-dihydro-7H-2,7,9a-triaza-benzo[cd]azulen-6-one], the melting point lay in the range of 273 to 275 °C. The inhibition constant Ki on purified PARP protein (setting [1]) worked out at 1.6 nM.
Turning to `CCOCCNCc1ccc(-c2nc3cccc4c3n2CCNC4=O)cc1` [Example 100, 1-{4-[(2-Ethoxyethylamino)-methyl]-phenyl}-8,9-dihydro-7H-2,7,9a-triaza-benzo[cd]azulen-6-one], the melting point was in the range of 138 to 140 °C. Further, the Ki at purified PARP protein (setting [1]) was 2.7 nM.
`N#CCNCc1ccc(-c2nc3cccc4c3n2CCNC4=O)cc1` [Example 102, [4-(6-Oxo-6,7,8,9-tetrahydro-2,7,9a-triaza-benzo[cd]azulen-1-yl)-benzylamino]-acetonitrile]: the melting point is 198 to 202 °C (dec.). In addition, at purified PARP protein (setting [1]), the inhibition constant (Ki) was 5.6 nM.
In turn, `O=C1NCCn2c(-c3ccc(CNCC(F)(F)F)cc3)nc3cccc1c32` [Example 103, 1-4-[(2,2,2-Trifluoro-ethylamino)-methyl]-phenyl-8,9-dihydro-7H-2,7,9a-triaza-benzo[cd]azulen-6-one] had a melting point of 221 to 223 °C. Besides, at purified PARP protein (setting [1]), the inhibition constant (Ki) stood at 6.2 nM.
Consider `C#CCNCc1ccc(-c2nc3cccc4c3n2CCNC4=O)cc1` [Example 104, 1-(4-Prop-2-ynylaminomethyl-phenyl)-8,9-dihydro-7H-2,7,9a-triaza-benzo[cd]azulen-6-one], for which the melting point is 126 °C (dec.). For the same molecule, the inhibition constant Ki at purified PARP protein (setting [1]) was determined as 4.5 nM.
The corresponding values for `O=C1NCCn2c(-c3ccc(CN4CCSCC4)cc3)nc3cccc1c32` [Example 105, 1-(4-Thiomorpholin-4-ylmethyl-phenyl)-8,9-dihydro-7H-2,7,9a-triaza-benzo[cd]azulen-6-one] are 266 °C (dec.) and 6.2 nM.
`Cc1ccc(-c2nc(-c3nc4cccc5c4n3CCNC5=O)cs2)cc1` [Example 106, 1-(2-p-Tolyl-thiazol-4-yl)-8,9-dihydro-7H-2,7,9a-triaza-benzo[cd]azulen-6-one] registered a melting point of 308 to 313 °C. The Ki at purified PARP protein (setting [1]) was 8 nM.
For `Cc1ccc(-c2onc3ccc(-c4nc5cccc6c5n4CCNC6=O)cc23)cc1` [Example 107, 1-(3-p-Tolyl-benzo[c]isoxazol-5-yl)-8,9-dihydro-7H-2,7,9a-triaza-benzo[cd]azulen-6-one], in that order: 297 to 301 °C (dec.) and 25 nM.
For `O=C1NCCn2c(-c3ccc(Sc4ccc(Cl)cc4)nc3)nc3cccc1c32` [Example 108, 1-[6-(4-Chloro-phenylsulfanyl)-pyridin-3-yl]-8,9-dihydro-7H-2,7,9a-triaza-benzo[cd]azulen-6-one], in that order: 280 to 284 °C (dec.) and 6 nM.
For `N#Cc1ccc(Oc2ccc(-c3nc4cccc5c4n3CCNC5=O)cn2)cc1` [Example 109, 4-[5-(6-Oxo-6,7,8,9-tetrahydro-2,7,9a-triaza-benzo[cd]azulen-1-yl)-pyridin-2-yloxy]-benzonitrile], in that order: 281 to 288 °C (dec.) and 5.5 nM.

The values are drawn from US6548494B1, “Tricyclic inhibitors of poly(ADP-ribose) polymerases” (Agouron Pharmaceuticals, Inc., priority 1999, dated 2003).
